Literature values as cited in PubChem BioAssay AID1259409 (Chemical Carcinogenesis Research Information System (CCRIS), 2018).

System: rodent chemically induced tumor inhibition, incidence and multiplicity
Assay: CCRIS tumor inhibitor studies
Conditions: Route [Inhibitor]: ORAL; for tumour outcome (control, treated, inhibition, significance): Promoter: NONE USED

In the case of `O=[Se](O)O`, the “tumour outcome (control, treated, inhibition, significance)” value (Carcinogen: AZOXYMETHANE, 25843-45-2, Dose [Inhibitor]: 2.5 PPM IN DIET BEGINNING 1 WK POST CARCINOGEN DOSE FOR DURATION OF STUDY (STUDY DURATION: 39 WK), Species: RAT, Strain/Sex: F344/MALE, Target Tissue: Type of Lesion: DUODENUM: ADENOCARCINOMA, Dose [Carcinogen]: 15 MG/KG BW 1/WK FOR 2 WK) is given as 7/27 (26%), 8/27 (30%), -15%, not significant, the “tumour outcome (control, treated, inhibition, significance)” value (Carcinogen: AZOXYMETHANE, 25843-45-2, Dose [Inhibitor]: 2.5 PPM IN DIET BEGINNING 1 WK POST CARCINOGEN DOSE FOR DURATION OF STUDY (STUDY DURATION: 39 WK), Species: RAT, Strain/Sex: F344/MALE, Target Tissue: Type of Lesion: DUODENUM: ADENOMA, Dose [Carcinogen]: 15 MG/KG BW 1/WK FOR 2 WK) is given as 3/27 (11%), 5/27 (19%), -73%, not significant and the “tumour outcome (control, treated, inhibition, significance)” value (Carcinogen: AZOXYMETHANE, 25843-45-2, Dose [Inhibitor]: 2.5 PPM IN DIET BEGINNING 3 WK PRIOR TO CARCINOGEN DOSE AND CONTINUING FOR 1 WK POST CARCINOGEN DOSE (STUDY DURATION: 39, Species: RAT, Strain/Sex: F344/MALE, Target Tissue: Type of Lesion: COLON: ADENOCARCINOMA, Dose [Carcinogen]: 15 MG/KG BW 1/WK FOR 2 WK) is given as 10/27 (37%), 9/27 (33%), 11%, not significant. The “tumour outcome (control, treated, inhibition, significance)” value (Carcinogen: AZOXYMETHANE, 25843-45-2, Dose [Inhibitor]: 2.5 PPM IN DIET BEGINNING 3 WK PRIOR TO CARCINOGEN DOSE AND CONTINUING FOR 1 WK POST CARCINOGEN DOSE (STUDY DURATION: 39, Species: RAT, Strain/Sex: F344/MALE, Target Tissue: Type of Lesion: COLON: ADENOMA, Dose [Carcinogen]: 15 MG/KG BW 1/WK FOR 2 WK) was 16/27 (59%), 13/27 (48%), 19%, not significant, the “tumour outcome (control, treated, inhibition, significance)” value (Carcinogen: AZOXYMETHANE, 25843-45-2, Dose [Inhibitor]: 2.5 PPM IN DIET BEGINNING 3 WK PRIOR TO CARCINOGEN DOSE AND CONTINUING FOR 1 WK POST CARCINOGEN DOSE (STUDY DURATION: 39, Species: RAT, Strain/Sex: F344/MALE, Target Tissue: Type of Lesion: DUODENUM: ADENOCARCINOMA, Dose [Carcinogen]: 15 MG/KG BW 1/WK FOR 2 WK) was 7/27 (26%), 13/27 (48%), -85%, not significant and the “tumour outcome (control, treated, inhibition, significance)” value (Carcinogen: AZOXYMETHANE, 25843-45-2, Dose [Inhibitor]: 2.5 PPM IN DIET BEGINNING 3 WK PRIOR TO CARCINOGEN DOSE AND CONTINUING FOR 1 WK POST CARCINOGEN DOSE (STUDY DURATION: 39, Species: RAT, Strain/Sex: F344/MALE, Target Tissue: Type of Lesion: DUODENUM: ADENOMA, Dose [Carcinogen]: 15 MG/KG BW 1/WK FOR 2 WK) was 3/27 (11%), 6/27 (22%), -100%, not significant. The “tumour outcome (control, treated, inhibition, significance)” value (Carcinogen: AZOXYMETHANE, 25843-45-2, Dose [Inhibitor]: O.5 PPM IN DIET BEGINNING 3 WK PRIOR TO CARCINOGEN DOSE AND CONTINUING FOR 1 WK POST CARCINOGEN DOSE (STUDY DURATION: 39, Species: RAT, Strain/Sex: F344/MALE, Target Tissue: Type of Lesion: COLON: ADENOCARCINOMA, Dose [Carcinogen]: 15 MG/KG BW 1/WK FOR 2 WK) was 10/27 (37%), 8/27 (30%), 19%, not significant, the “tumour outcome (control, treated, inhibition, significance)” value (Carcinogen: BENZO[A]PYRENE, 50-32-8, Dose [Inhibitor]: 4 PPM IN DRINKING WATER DAILY FOR 12 MO STARTING 12 MO BEFORE CARCINOGEN TREATMENT (STUDY DURATION: 67 WK), Species: MOUSE, Strain/Sex: BALB/MALE, Target Tissue: Type of Lesion: INJECTION SITE: SARCOMA, Dose [Carcinogen]: 4 UG/G BW ONCE) was 31/50 (62%), 14/50 (28%), 55% and the outcome (Carcinogen: DIETHYLNITROSAMINE [55-18-5], Dose [Inhibitor]: 5 PPM IN DRINKING WATER, 3 WK AFTER PARTIAL HEPATECTOMY TO END AT 12 MO (STUDY DURATION: 12 MO), DRINKING WATER, Species: RAT, Strain/Sex: F344, Target Tissue: Type of Lesion: LIVER: TUMOR DENSITY, Dose [Carcinogen]: 200 MG/KG BW ONCE, Promoter: 2-ACETYLAMINOFLUORENE [53-96-3]) was 26, 14, 46.2%, p=0.01. For the same compound, the “tumour outcome (control, treated, inhibition, significance)” value (Carcinogen: DIETHYLNITROSAMINE, 55-18-5, Dose [Inhibitor]: 0, 1 MG/L IN DRINKING WATER FOR DURATION OF STUDY BEGINNING 7 D PRIOR TO FIRST CARCINOGEN DOSE (STUDY DURATION: 6 MO), Species: RAT, Strain/Sex: BD6/FEMALE, Target Tissue: Type of Lesion: ESOPHAGUS: TUMOR, Dose [Carcinogen]: 80 MG/KG BW 1/WK FOR 8 WK) was 30%, 0%, 100%, p<0.05, the “tumour outcome (control, treated, inhibition, significance)” value (Carcinogen: DIETHYLNITROSAMINE, 55-18-5, Dose [Inhibitor]: 0, 5 MG/L IN DRINKING WATER FOR DURATION OF STUDY BEGINNING 7 D PRIOR TO CARCINOGEN TREATMENT (STUDY DURATION: 6 MO), Species: RAT, Strain/Sex: BD6/FEMALE, Target Tissue: Type of Lesion: ESOPHAGUS: TUMOR, Dose [Carcinogen]: 80 MG/KG BW 1/WK FOR 9 WK) was 50%, 51%, -2%, not significant and the “tumour outcome (control, treated, inhibition, significance)” value (Carcinogen: DIETHYLNITROSAMINE, 55-18-5, Dose [Inhibitor]: 0, 5 MG/L IN DRINKING WATER FOR DURATION OF STUDY BEGINNING 7 D PRIOR TO CARCINOGEN TREATMENT (STUDY DURATION: 6 MO), Species: RAT, Strain/Sex: BD6/FEMALE, Target Tissue: Type of Lesion: LIVER: TUMOR, Dose [Carcinogen]: 80 MG/KG BW 1/WK FOR 9 WK) was 100%, 95%, 5%, not significant. The “tumour outcome (control, treated, inhibition, significance)” value (Carcinogen: DIETHYLNITROSAMINE, 55-18-5, Dose [Inhibitor]: 0, 5 MG/L IN DRINKING WATER FOR DURATION OF STUDY BEGINNING 7 D PRIOR TO FIRST CARCINOGEN DOSE (STUDY DURATION: 6 MO), Species: RAT, Strain/Sex: BD6/FEMALE, Target Tissue: Type of Lesion: ESOPHAGUS: TUMOR, Dose [Carcinogen]: 80 MG/KG BW 1/WK FOR 8 WK) was 31%, 50%, -61%, not significant, the “tumour outcome (control, treated, inhibition, significance)” value (Carcinogen: DIETHYLNITROSAMINE, 55-18-5, Dose [Inhibitor]: 0, 5 MG/L IN DRINKING WATER FOR DURATION OF STUDY BEGINNING 7 D PRIOR TO FIRST CARCINOGEN DOSE (STUDY DURATION: 6 MO), Species: RAT, Strain/Sex: BD6/FEMALE, Target Tissue: Type of Lesion: LIVER: TUMOR, Dose [Carcinogen]: 80 MG/KG BW 1/WK FOR 8 WK) was 94%, 94%, 0%, not significant and the “tumour outcome (control, treated, inhibition, significance)” value (Carcinogen: DIETHYLNITROSAMINE, 55-18-5, Dose [Inhibitor]: 0, 10 MG/L IN DRINKING WATER FOR DURATION OF STUDY BEGINNING 4 D POST CARCINOGEN TREATMENT (STUDY DURATION: 6 M0), Species: RAT, Strain/Sex: BD6/FEMALE, Target Tissue: Type of Lesion: LIVER: TUMOR, Dose [Carcinogen]: 80 MG/KG BW 1/WK FOR 9 WK) was 100%, 96%, 4%, not significant.
